This note sets out measurements from ChEMBL document CHEMBL5537110, “SIRT1-dependent mitochondrial biogenesis supports therapeutic effects of 4-butyl-polyhydroxybenzophenone compounds against NAFLD” (Eur J Med Chem, 2023).

In assay [1] the test system is Mitochondria. Nature of the assay: Inhibition of mitochondrial dysfunction in 40% FBS-induced steatosis human HepG2 cells model assessed as mitochondria with less swelling and organized mitochondrial cristae at 5 uM incubated for 24 hrs by transmission electron microscopy. Type of assay: functional.
Assay [2] concerns HepG2. Nature of the assay: Inhibition of liver injury in 40% FBS-induced steatosis human HepG2 cells model assessed as decrease in LDH level at 0.2 to 5 uM incubated in steatosis inducing DMEM with 40% FBS medium for 24 hrs followed by compound treatment. Particulars: dose 0.2-5 µM. Format: functional, cell-based.
Assay [3] deals with Rattus norvegicus. Nature of the assay: Hepatoprotective activity against high fat diet-fed NAFLD Sprague-Dawley rat model assessed as decrease in serum total cholesterol content administered intragastrically via gavage for 4 weeks. Format: functional, organism-based. Particulars: dose 12.3-61.4 mg/kg, route ig.
For assay [4], the system named is HepG2. Nature of the assay: Inhibition of liver injury in 40% FBS-induced steatosis human HepG2 cells model assessed as increase in liver protection index by measuring increase in GSH level at 0.2 to 5 uM incubated with compound for 24 hrs followed by replacement with steatosis inducing DMEM with 40% FBS medium. Particulars: dose 0.2-5 µM. Type of assay: functional, cell-based.

Assay [5] deals with Rattus norvegicus. Nature of the assay: Hepatoprotective activity against high fat diet-fed NAFLD Sprague-Dawley rat model assessed as inhibition of diet-induced body weight gain administered intragastrically via gavage for 4 weeks. Type of assay: functional, organism-based. Particulars: dose 12.3-61.4 mg/kg, route ig.
In assay [6] the test system is HepG2. Nature of the assay: Induction of mitochondrial biogenesis in human HepG2 cells assessed as PGC1alpha mRNA expression incubated for 24 hrs in presence of SIRT1 inhibitor, EX527 by qRT-PCR analysis. Format: functional, cell-based.
The test system of assay [7] is HepG2. Nature of the assay: Induction of SIRT1/PGC1alpha interaction in human HepG2 cells at 5 umol/L by co-immunoprecipitataion analysis. Particulars: filed as activator, dose 5.0 µmol/L. Type of assay: cell-based.
For assay [8], the system named is Rattus norvegicus. Nature of the assay: Hepatoprotective activity against high fat diet-fed NAFLD Sprague-Dawley rat model assessed as decrease in serum LDH level administered intragastrically via gavage for 4 weeks. Format: functional, organism-based. Particulars: dose 12.3-61.4 mg/kg, route ig.
In assay [9] the test system is EA.hy 926. Nature of the assay: Cytoprotective activity against H2O2-induced toxicity in human EA.hy 926 cells assessed as protective rate pretreated with compound for 4 hrs followed by incubation with H2O2 for 2 hrs by absorbance based analysis. Format: functional, cell-based.
Assay [10] concerns Rattus norvegicus. Nature of the assay: Hepatoprotective activity against high fat diet-fed NAFLD Sprague-Dawley rat model assessed as decrease in serum AST level at 12.3 to 61.4 mg/kg, IG administered via gavage for 4 weeks. Particulars: dose 12.3-61.4 mg/kg. Format: functional, organism-based.
In assay [11] the test system is HepG2. Nature of the assay: Inhibition of liver injury in human HepG2 cells assessed as increase in liver protection index by measuring increase in ratio of GSH to GSSG at 0.2 to 5 uM incubated with compound for 24 hrs followed by replacement with steatosis inducing DMEM with 40% FBS medium. Format: functional, cell-based. Particulars: dose 0.2-5 µM.
The subject of assay [12] is Rattus norvegicus. Nature of the assay: Hepatoprotective activity against high fat diet-fed NAFLD Sprague-Dawley rat model assessed as decrease in serum ALT level administered intragastrically via gavage for 4 weeks. Format: functional, organism-based. Particulars: dose 12.3-61.4 mg/kg, route ig.
Assay [13] relates to HepG2. Nature of the assay: Recovery of mitochondrial biogenesis in 40% FBS-induced steatosis human HepG2 cells model assessed as increase in NRF1 mRNA expression incubated for 24 hrs by qRT-PCR analysis. Format: functional, cell-based. Particulars: dose 0.2-5 µM.
The target of assay [14] is T1, Peroxisome proliferator-activated receptor gamma coactivator 1-alpha (Homo sapiens, UniProt Q9UBK2).
T1 sequence (Q9UBK2 whole entry): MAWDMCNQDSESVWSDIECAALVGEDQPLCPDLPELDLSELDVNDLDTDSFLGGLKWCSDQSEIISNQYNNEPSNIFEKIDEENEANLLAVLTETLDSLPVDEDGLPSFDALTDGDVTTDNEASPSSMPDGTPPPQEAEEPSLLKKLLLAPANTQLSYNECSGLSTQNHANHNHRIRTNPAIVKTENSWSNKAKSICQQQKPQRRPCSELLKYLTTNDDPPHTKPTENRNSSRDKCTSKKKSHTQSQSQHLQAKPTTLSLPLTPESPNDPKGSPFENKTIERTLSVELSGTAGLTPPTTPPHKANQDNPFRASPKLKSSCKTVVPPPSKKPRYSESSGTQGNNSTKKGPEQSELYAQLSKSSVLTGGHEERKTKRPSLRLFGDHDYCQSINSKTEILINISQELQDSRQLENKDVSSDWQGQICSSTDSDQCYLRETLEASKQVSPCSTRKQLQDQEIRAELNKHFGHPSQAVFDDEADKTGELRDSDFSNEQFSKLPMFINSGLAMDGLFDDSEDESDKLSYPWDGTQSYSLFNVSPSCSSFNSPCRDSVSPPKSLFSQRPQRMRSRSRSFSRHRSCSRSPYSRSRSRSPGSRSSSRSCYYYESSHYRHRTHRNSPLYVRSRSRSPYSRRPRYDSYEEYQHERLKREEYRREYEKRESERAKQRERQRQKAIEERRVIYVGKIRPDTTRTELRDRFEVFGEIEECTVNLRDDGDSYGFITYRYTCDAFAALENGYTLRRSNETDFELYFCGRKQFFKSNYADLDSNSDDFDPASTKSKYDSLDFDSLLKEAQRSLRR
Nature of the assay: (§1) Binding affinity to PGC1alpha (unknown origin) by surface plasmon resonance assay. In general terms: Surface plasmon resonance follows binding to a sensor surface in real time, without labels.

Assay [15] has as its target T2, Peroxisome proliferator-activated receptor gamma coactivator 1-alpha (Homo sapiens) (UniProt Q9UBK2).
T2 sequence (whole entry): T1 sequence (Q9UBK2 whole entry)
Described as §1. Particulars: filed as activator.

For assay [16], the system named is HepG2. Nature of the assay: Recovery of mitochondrial biogenesis in 40% FBS-induced steatosis human HepG2 cells model assessed as increase in PGC1alpha protein expression incubated for 24 hrs by western blot analysis. Type of assay: functional, cell-based. Particulars: dose 0.2-5 µM. In general terms: Immunoblotting shows a protein as a band on a membrane.
The test system of assay [17] is HepG2. Nature of the assay: Recovery of mitochondrial biogenesis in 40% FBS-induced steatosis human HepG2 cells model assessed as increase in SIRT1 mRNA expression incubated for 24 hrs by qRT-PCR analysis. Format: functional, cell-based. Particulars: dose 0.2-5 µM. (In general: Real-time PCR tracks product formation cycle by cycle.)
The test system of assay [18] is Rattus norvegicus. Nature of the assay: Hepatoprotective activity against high fat diet-fed NAFLD Sprague-Dawley rat model assessed as decrease in liver index administered intragastrically via gavage for 4 weeks. Type of assay: functional, organism-based. Particulars: dose 12.3-61.4 mg/kg, route ig.
Assay [19] concerns HepG2. Nature of the assay: Inhibition of liver injury in 40% FBS-induced steatosis human HepG2 cells model assessed as decrease in ALT level at 0.2 to 5 uM incubated in steatosis inducing DMEM with 40% FBS medium for 24 hrs followed by compound treatment. Format: functional, cell-based. Particulars: dose 0.2-5 µM.
Assay [20] deals with HepG2. Nature of the assay: Recovery of mitochondrial activity in 40% FBS-induced steatosis human HepG2 cells model assessed as increase in number of mitochondria incubated with compound for 24 hrs followed by replacement with steatosis inducing DMEM with 40% FBS medium by MitoTracker Green based fluorescence analysis. Particulars: dose 0.2-5 µM. Type of assay: functional, cell-based.

Active and inactive are the calls of the source. The rule behind the calls is not given here.

For orientation: EC50 means the concentration giving half of the maximal effect. The Kd is the equilibrium constant for the complex coming apart. Read a low Kd as a tighter complex. Take `CC(C)(C)c1ccc(C(=O)c2ccc(O)c(O)c2)cc1`: the inhibition entry in [1], in assay [2], in assay [4], in assay [11] and in [19] was “Active” each time. Besides, the Activity entry in assay [3], in assay [5], in assay [13], in assay [15], in [16] and in assay [17] was “Dose-Dependent Effect” throughout. Moreover, the Activity entry in [18] and in assay [20] was “Dose-Dependent Effect” each time. Further, the result in [6] was inactive. The outcome in assay [7], in [8], in [10] and in assay [12] was Active. Further, the EC50 in assay [9] was determined as 72.3 nM. The affinity in assay [14], expressed as Kd, was 172 µM.
